Measured values reported in patent US11147219B2, “Methods and systems for growing plants using silicate-based substrates, cultivation of enhanced photosynthetic productivity and photosafening by utilization of exogenous glycopyranosides for endogenous glycopyranosyl-protein derivatives, and formulations, process and systems for the same” (Innovation Hammer, LLC, priority 2011, dated 2021).
“And” between values parts separate entries of the source, which are not always exact repeats. Equal entries are not always repeated.

Assays:
Type in all cases: in vivo
corn = assay: Corn cultured in 700 μm silicate beads, root treatment; conditions: 1 mM IG
Procedure: Individual plants were started from seeds, bulbs, or vegetative clones, inserted into containers of pre-moistened microbeads. Seedlings included ryegrass and corn; bulbs were of Crocus and paperwhite narcissus; and vegetative cuttings were from Coleus. Seeds generally germinated and were selected according to day of emergence of first roots as control and treatment sets. Roots were treated thereafter.
(§1) Plants were cultivated under controlled environmental conditions as follow: GE Ecolux® plant and aquarium F40T12 fluorescent illumination, photosynthetically active radiation (PAR) of 100 μEin·m^−2·s^−1, diel cycle of 16:8 h light:dark, 28:26° C., 10% to 20% relative humidity. Indoxyl glycopyranoside (IG) was formulated in water and applied and controls were given equal volumes of water without IG. […] Clear plastic 500 cc containers, perforated for drainage, were filled to a depth of 10 cm with up to 900 grams of microbeads each. Initially, basal plates of bulbs were immersed 1 cm into moistened 700 μm nmd silicate beads to initiate rooting. Within a week, first roots emerged and each bulb was treated with 0.1 ml of aqueous 10 mM IG. Controls were treated with addition of 0.1 ml water to their media. After 8 h uptake of the treatments, fertigation resumed in a manner consistent with pH-control. In another case, 0.3 mM 4-amino-phenyl-α-D-mannopyranoside (APM) was dissolved in water with 3 ppm Mn as EDTA, 6 ppm Ca as EDTA. A solution of the formulation was applied to rooted Crocus. APM-treated plants were compared to plants given identical control formulation without APM. Within five hours of treatment and, through fertigation, thereafter, all container cultures were regularly given equal volumes of nutribead solution. Controls were placed side-by-side and cultivated, likewise.
For all experiments, at 7 d to 14 d after treatment, microbeads were saturated with water. Immediately, individual plants gently were pulled and lifted out of the water-saturated silicate microbeads by hand. […] For paperwhites, volumes of entire roots were measured by displacement of water in glass beakers. […]

paperwhite narcissus = assay: Paperwhite narcissus bulbs cultured in 700 μm silicate beads, root treatment; conditions: 16 days after treatment; n=6; p=0.01; controls 30 cc
Procedure: as §1, with “Within five hours of treatment and, through fertigation, thereafter, all container cultures were regularly given equal volumes of nutribead solution. Controls were placed side-by-side and cultivated, likewise.” left out
[…] For paperwhites, volumes of entire roots were measured by displacement of water in glass beakers. […]

[1] = test system: radish "Cherry Bell" Raphanus sativus L.; assay: Greenhouse foliar treatment of radish, root dry weight
Procedure: Plant responses to formulations of an alkyl-α-D-mannopyranose and an electron donating-aryl-α-D-mannopyranose were consistent with preferred binding tendencies to displace glucose from storage. Plants were maintained in automated greenhouses controlled for temperature, light and circulation. Environmental conditions during the course of the studies averaged 13:11 hour L:D photoperiod, 25°:20° C. day:night and 20% to 80% relative humidity. Sunlight was supplemented with electrical illumination to achieve photosynthetically active radiation levels ranging from 350 to 600 μmol photons·m^−2·s^−1 at the level of the phylloplane. Solutions for treated and control plants were applied within an hour, otherwise subjecting all plants to identical conditions consistent with good laboratory practices. Solutions applied to controls included nutrients and surfactants identical to the treatment solution, but without the active compound. General supplementation of foliar formulations included the following: 10-100 mM ammonium salt; 1-6 ppm manganese, Mn-EDTA; and 5-10 ppm calcium, Ca-EDTA. For example, foliar solutions of 0.3 mM p-aminophenylmannopyranoside, hereafter referred to as APM, were supplemented with 23 mM ammonium sulfate, (NH4)2SO4, 3 ppm Mn and 6 ppm Ca; and Nutrient Control contained 23 mM (NH4)2SO4, 3 ppm Mn and 6 ppm Ca. The foliar concentrations of Mn and Ca were higher than those specified previously because of the low volumes of foliar applications relative to hydroponic root immersion volumes, and they were particularly effective in combination with foliar applications of compounds because they supported high rates of productivity in the treated plants without phytotoxicity. Compounds for experimentation included the following: methyl-α-D-mannopyranoside (MeM), APM, and methyl-α-D-glucopyranoside (MeG). All foliar solutions were formulated with 1 gm/liter surfactant blend consisting of 0.5 gram DowCorning Q5211 dispersed into 1.5 grams BASF Pluronic L62. As a matter of course, untreated controls that foliar nutrients and wetting agents were not introducing artifacts. The standard volume for foliar application of experimental treatments was 200 liters/hectare. Identical volumes of foliar spray per tray of plant cultures were applied mechanically in a single pass. Controls were placed in the same location and given identical irrigation and handling as the treated plants. To compare the effects of treatments under tightly controlled conditions, plants were cultured, harvested, cleaned and weighed as per previously described methods. Treated plants were statistically analyzed in comparisons against controls. Each survey population held sufficient replicate sample numbers to make meaningful statistical analyses utilizing SPSS® software. Significance was determined at the 95% confidence interval (CI) of the difference. Counts of population numbers are denoted as “n” values. For experiments, radish “Cherry Bell” Raphanus sativus L., a root crop was planted and treated. […] Therefore, least concentrations were selected for statistical experimentation; and 200 l/ha foliar 1 mM MeM or 0.3 mM APM in nutrient-supplemented formulations were applied to 5 cm tall sprouts; while, Nutrient Controls were given foliar applications of identical solutions without the α-D-glycopyranosides; and no foliar solutions were applied to untreated controls which were otherwise identically cultivated and irrigated. For our quantification experiments, when improvements of root productivity over those of nutrient controls were visibly discernible 12 d after treatment, all populations of controls and treatments were harvested, and individual dry weights of treatment and control populations were analyzed.

Radish seedlings = assay: Radish seedling assay, immersion in nutrient solution with α-mannosides
Procedure: Plants were cultured in research facilities and consistency of response to treatments was achieved by supplementation with chelated calcium and manganese. All plants were regularly given modified Hoagland water-culture nutrients. […] Controls were placed in the same location and all plants were given the same irrigation, fertilizers, and handling, but without the experimental compounds. Plants were matched to controls and treated within a week of emergence of cotyledon and true leaves. The performance of compounds was evaluated by comparing means of individual dry weights of shoots and roots. Statistics applied two-tailed Student's t-test with p-values significant within 95% confidence intervals. Counts of populations are “n” values and standard error is denoted “±SE.” Specialty chemicals included the following: tetramethyl-β-D-glucoside (TMG); tetraacetyl-D-glucopyranose (TAG); pentaacetyl-α-D-mannopyranose (MP); p-amino-phenyl-α-D-mannoside (APM); methyl-α-D-mannoside (MeM) and methylglucoside (MeG). MPG was synthesized. 2,3,4,6-tetra-O-acetyl-D-mannopyranose (αβ) was utilized. As required, MP and APM were dissolved in a lower aliphatic alcohol prior to dilution in aqueous media.
Assay—Radish seedlings were treated with α-mannosides after emergence of radicles. Seedlings were matched and transferred to Nutrient Control or treatment solutions. Assays were maintained under environmental conditions as follow: Photosynthetically active radiation 100 μEin·m^−2·sec^−1, diel cycle of 16:8 h light:dark, 26:26° C.

[2] = test system: radish (Raphanus sativus L., cultivar "Cherry Bell"); assay: Radish seed germination and seedling growth, nutrient omission media; conditions: glycoside alone, no divalent cations
Procedure: Treatment of seeds and seedlings by aqueous solutions is exemplified by mannosides supplemented with soluble divalent cations in complete mannosides formulations. […] Benefits of such exemplary seed priming methods are as follows: Germination and early growth of radish (Raphanus sativus L., cultivar “Cherry Bell”) and Swiss Chard (Beta vulgaris subspecies cicla L., cultivar “Fordhook® Giant”) were tested for response to α-mannosides supplemented with Ca^2+ and/or Mn^2+. Rapid assays of radish seed germination and growth used hydroponic cultures with no solid medium; longer experiments with Swiss Chard used a 2-5 mm substratum of 700 μm diameter glass microbeads. Neutralization of glass microbeads may be undertaken with dilute mildly acidic solution titrated to pH 6; for example, with mineral acids such as hydrochloric acid, sulfuric acid, nitric acid, and the like; organic acids such as uronic, citric, malic, lactic, salicylic, ascorbic, succinic, oxaloacetic, ketoglutaric, fumaric acids, and amino acids, and the like; artificial biological buffering agents such as TRIS, BIS TRIS, MES, MOPS, HEPES, and the like; fertilizers; and most preferably, phosphates; and the most highly preferred compounds are combinations of compounds in a pH 6-buffer that provide major nutrients for plants, such as MAP with DKP or DAP with MKP; and the like. When test medium was added, the glass microbeads formed an even layer, drawing liquid to the surface by capillary action. Seeds were examined to exclude aberrantly large, small, or damaged seeds, and were placed on the surface of the substratum. For experiments using post-germination seedlings, seeds were germinated in deionized water prior to exposure to nutrient media. A seed with an emerged radicle >1 mm was recorded as germinated, and germinated seeds were counted daily, until 95% germination. There was no visible evidence of either desiccation or waterlogging effects. Glass microbeads were removed by immersion and agitation in water, or manually with fine forceps. Harvested plants were oven-dried to determine dry weight. Treatment and control solutions were prepared by dissolving nutrients in deionized ultrapure water.
Growth media were based on omission or inclusion of glycosides and targeted divalent cations. Triose is the abbreviation for α-1,3-α-1,6 mannotriose) and MEM is methyl-α-D-mannoside. Terminology used herein indicates the omission or inclusion of nutrients: 000=control medium with no glycoside, Ca^2+ or Mn^2+; MeMOO=medium with MeM, but no Ca^2+ or Mn^2+; MeMCaO=medium with MeM and Ca^2+, but no Mn^2+, OCaMn=medium with no MeM, but with Ca^2++Mn^2+; and so on. Similar terminology is used for media containing triose. Results cited are means±SE. […]

[3] = test system: Swiss Chard (Beta vulgaris subspecies cicla L., cultivar "Fordhook Giant"); assay: Swiss Chard germination and seedling growth on glass microbead substratum; conditions: media containing 100 μM MeM
Procedure: Treatment of seeds and seedlings by aqueous solutions is exemplified by mannosides supplemented with soluble divalent cations in complete mannosides formulations. […] Benefits of such exemplary seed priming methods are as follows: Germination and early growth of radish (Raphanus sativus L., cultivar “Cherry Bell”) and Swiss Chard (Beta vulgaris subspecies cicla L., cultivar “Fordhook® Giant”) were tested for response to α-mannosides supplemented with Ca^2+ and/or Mn^2+. Rapid assays of radish seed germination and growth used hydroponic cultures with no solid medium; longer experiments with Swiss Chard used a 2-5 mm substratum of 700 μm diameter glass microbeads. […] A seed with an emerged radicle >1 mm was recorded as germinated, and germinated seeds were counted daily, until 95% germination. […]

Indoxyl glycopyranoside [IG]
taproot total length (corn; after a week, control 5 cm): 7 cm
dry weight of entire plant (corn; control plant 0.2 g): 0.3 g
dry weight of separated roots (corn; control roots 0.03 g): 0.04 g
mean root volume (paperwhite narcissus): 37 cc per plant

CO[C@H]1O[C@H](CO)[C@@H](O)[C@H](O)[C@@H]1O [MeM, methyl-α-D-mannopyranoside]
root mean dry weight over the Nutrient Control ([1]; foliar 1 mM with nutrients): highly significant (n=72; p=0.001) increase
root weight increase over controls ([1]; foliar 1 mM, 200 l/ha, harvest 12 d after treatment, n=72, p=0.001): 30%
active concentration applied for growth response ([1]; foliar, radish): 1 mM
enhancement of mean dry weight over Nutrient Control (Radish seedlings; 25 μM, 48 h): 12% and ~11%
mean dry weight of whole plants (Radish seedlings; 25 μM, 48 h): 10 mg
enhancement of mean dry weight over Nutrient Control (Radish seedlings; 50 μM, 48 h): 11%
mean dry weight of whole plants (Radish seedlings; 50 μM, 48 h): 11 mg
mean dry weight of whole plants (Radish seedlings; 100 μM, 48 h): 10.9 mg
visual comparison with Nutrient Control (Radish seedlings; 500 μM, 24 h): enhanced pigmentation and general growth
enhancement of mean dry weight over Nutrient Control (Radish seedlings; 500 μM, 48 h): 11%
mean dry weight of whole plants (Radish seedlings; 500 μM, 48 h): 10.3 mg
growth response compared to Nutrient Control (visual) (Radish seedlings; 48 h, 1 mM TAM, 100 μM MP, 25 μM to 500 μM MeM, 10 μM APM): advanced growth responses
effect on plant growth / seedling yields without Ca2+ and Mn2+ [2]: no significant effect
germination rates compared with media without the glycoside [3]: consistently higher
